Values of other authors in US7935365B2, “Glycerophospholipids for the improvement of cognitive functions” (Enzymotec, Ltd., priority 2003, dated 2011).
Like-named read-outs stand apart in the source and are kept apart here.

SMILES | Improvement of the ADHD index, previously reported (Rugino and Copley (2001)) [SD] | Improvement of the ADHD index, previously reported (Alhambra et al. (1995))
NC(=O)C[S+]([O-])C(c1ccccc1)c1ccccc1 (centres unmarked) [modafinil] | > 2.5 | –
COC(=O)C(c1ccccc1)C1CCCCN1 (racemic) [methylphenidate, DL-threo-Methylphenidate] | – | exceed 80%
